# From patent EP1368020B1, “METHOD FOR IDENTIFYING MAXI-K CHANNEL BLOCKERS” (priority 2001, dated 2002)
# Legend:
# Type in all cases: cell-based
# [1] = system: endogenous potassium conductance of HEK-293 cells; assay: FRET membrane potential assay (VIPR), high-potassium addition to untransfected HEK-293 cells; conditions: Figure 1; for effect on the fluorescence signal caused by high-potassium addition: different/increasing concentrations of compound; for efficacy of Compound A or Compound B in the presence of Compound 1: selective maxi-K channel blocker Compound 1 present
# Procedure: HEK-293 cells were plated on 96-well poly-D-lysine plates and incubated for about 16 to 24 hours at 37°C. The media was aspirated and the cells were washed once with D-PBS. Cells were incubated with 9 µM coumarin (CC2DMPE)-0.02% pluronic-127 in D-PBS for 30 minutes in the dark. Cells were washed twice with D-PBS, and incubated with 4.5 µM oxanol (DiSBAC2(3)) in the absence (Control) or presence of increasing concentrations of test compound, in the dark for 30 minutes. Plates were loaded onto a VIPR instrument and the fluorescence emission of both dyes was recorded for 10 seconds. A solution containing high-potassium was then added and the fluorescence emission of the dyes was recorded for another 10 seconds. The coumarin/oxanol ratio was calculated under both conditions. Before addition of high-potassium, this ratio was always normalized to 1.
# The signal is not affected by the presence of different concentrations of the selective maxi-K channel blocker, Compound 1. […] A useful concentration range for these agents is 3-10 µM. Importantly, in the presence of the selective maxi-K channel blocker Compound 1, the efficacy of either Compound A or Compound B is unaffected.
# [2] = molecular target: T1, maxi-K channels transiently expressed in TsA-201 cells (Homo sapiens, UniProt Q12791); assay: FRET membrane potential assay (VIPR), maxi-K channels transiently expressed in TsA-201 cells; conditions: 3 µM, Figure 2
# T1 construct: expressed in transfected cells; host or cells: TsA-201 cells, transient transfection
# [3] = molecular target: T2, maxi-K channel (alpha and beta1 subunits) in stably transfected HEK-293 cells (Homo sapiens, UniProt Q12791); assay: FRET membrane potential assay (VIPR), HEK-293 cells stably transfected with alpha and beta1 subunits of the maxi-K channel
# T2 construct: expressed in transfected cells
# Procedure: Transfection of the alpha and beta1 subunits of the maxi-K channel in HEK-293 cells was carried out as follows: HEK-293 cells were plated in 100 mm tissue culture treated dishes at a density of 3x10^6 cells per dish, and a total of five dishes were prepared. Cells were grown in a medium consisting of Dulbecco's Modified Eagle Medium (DMEM) supplemented with 10% Fetal Bovine serum, 1X L-Glutamine, and 1X Penicillin/Streptomycin, at 37°C, 10% CO2. For transfection with Maxi-K hα (pCIneo) and Maxi-K hβ1 (pIRESpuro) DNAs, 150 µl FuGENE6™ was added dropwise into 10 ml of serum free/phenol-red free DMEM and allowed to incubate at room temperature for 5 minutes. Then, the FuGENE6™ solution was added dropwise to a DNA solution containing 25 µg of each plasmid DNA, and incubated at room temperature for 30 minutes. After the incubation period, 2 ml of the FuGENE6™/DNA solution was added dropwise to each plate of cells and the cells were allowed to grow two days under the same conditions as described above. At the end of the second day, cells were put under selection media which consisted of DMEM supplemented with both 600 µg/ml G418 and 0.75 µg/ml puromycin. Cells were grown until separate colonies were formed. Five colonies were collected and transferred to a 6 well tissue culture treated dish. A total of 75 colonies were collected. Cells were allowed to grow until a confluent monolayer was obtained. Cells were then tested for the presence of maxi-K channel alpha and beta 1 subunits using an assay that monitors binding of ^125I-iberiotoxin-D19Y/Y36F to the channel. Cells expressing ^125I-iberiotoxin-D19Y/Y36F binding activity were then evaluated in a functional assay that monitors the capability of maxi-K channels to control the membrane potential of transfected HEK-293 cells using fluorescence resonance energy transfer (FRET) ABS technology with a VIPR instrument. The colony giving the largest signal to noise ratio was subjected to limiting dilution. For this, cells were resuspended at approximately 5 cells/ml, and 200 µl were plated in individual wells in a 96 well tissue culture treated plate, to add ca. one cell per well. A total of two 96 well plates were made. When a confluent monolayer was formed, the cells were transferred to 6 well tissue culture treated plates. A total of 62 wells were transferred. When a confluent monolayer was obtained, cells were tested using the FRET-functional assay. […]
# The plates are loaded into a voltage/ion probe reader (VIPR) instrument, and the fluorescence emission of both CC2DMPE and DiSBAC2(3) are recorded for 10 sec. At this point, 100 µl of high-potassium solution (mM): 140 KCl, 2 CaCl2, 1 MgCl2, 20 Hepes-KOH, pH 7.4, 10 glucose are added and the fluorescence emission of both dyes recorded for an additional 10 sec. […]
# T2 sequence (Q12791 whole entry): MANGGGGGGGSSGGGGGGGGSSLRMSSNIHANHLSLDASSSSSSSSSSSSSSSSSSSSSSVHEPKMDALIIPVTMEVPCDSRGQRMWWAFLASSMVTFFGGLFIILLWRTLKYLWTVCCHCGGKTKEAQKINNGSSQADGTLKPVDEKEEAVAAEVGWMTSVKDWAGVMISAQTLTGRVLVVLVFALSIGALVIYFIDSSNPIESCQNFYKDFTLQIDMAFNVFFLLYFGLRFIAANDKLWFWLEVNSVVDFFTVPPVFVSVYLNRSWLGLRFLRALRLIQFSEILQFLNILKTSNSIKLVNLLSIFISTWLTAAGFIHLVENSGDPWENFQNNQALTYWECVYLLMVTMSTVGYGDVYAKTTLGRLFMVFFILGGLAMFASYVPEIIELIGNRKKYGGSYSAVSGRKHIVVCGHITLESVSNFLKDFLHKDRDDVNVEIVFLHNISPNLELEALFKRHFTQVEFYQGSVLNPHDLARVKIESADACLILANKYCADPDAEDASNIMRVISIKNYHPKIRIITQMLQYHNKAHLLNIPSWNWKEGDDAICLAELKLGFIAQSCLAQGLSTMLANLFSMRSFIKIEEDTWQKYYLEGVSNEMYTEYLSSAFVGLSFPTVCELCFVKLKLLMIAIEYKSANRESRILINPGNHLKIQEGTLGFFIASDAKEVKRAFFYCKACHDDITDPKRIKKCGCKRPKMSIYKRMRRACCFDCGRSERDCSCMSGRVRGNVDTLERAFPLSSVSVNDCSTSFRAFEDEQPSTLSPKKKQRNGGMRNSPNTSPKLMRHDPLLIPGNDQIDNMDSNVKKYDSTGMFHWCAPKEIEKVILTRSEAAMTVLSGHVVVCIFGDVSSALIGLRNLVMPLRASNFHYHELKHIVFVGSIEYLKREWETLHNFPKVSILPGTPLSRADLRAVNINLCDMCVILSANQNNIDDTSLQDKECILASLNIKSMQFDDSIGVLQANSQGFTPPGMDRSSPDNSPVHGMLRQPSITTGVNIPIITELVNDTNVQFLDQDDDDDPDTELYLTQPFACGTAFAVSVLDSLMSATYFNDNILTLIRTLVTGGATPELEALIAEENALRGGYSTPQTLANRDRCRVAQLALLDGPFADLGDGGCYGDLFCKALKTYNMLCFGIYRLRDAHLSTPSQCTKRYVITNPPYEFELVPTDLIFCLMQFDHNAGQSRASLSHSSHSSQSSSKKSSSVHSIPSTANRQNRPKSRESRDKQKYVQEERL
# T2 sequence (Q16558 whole entry partner): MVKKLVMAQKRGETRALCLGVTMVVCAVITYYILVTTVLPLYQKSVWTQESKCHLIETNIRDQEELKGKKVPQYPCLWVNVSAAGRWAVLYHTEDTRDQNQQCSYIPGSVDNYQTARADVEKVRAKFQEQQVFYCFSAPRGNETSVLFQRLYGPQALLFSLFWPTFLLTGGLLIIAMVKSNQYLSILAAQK
# T1 sequence (Q12791 whole entry): as the sequence (Q12791 whole entry) above
# T1 sequence (Q16558 whole entry partner): as the sequence (Q16558 whole entry partner) above
Structure (SMILES),effect on the fluorescence signal caused by high-potassium addition [1],efficacy of Compound A or Compound B in the presence of Compound 1 [1],effect on control signal (maxi-K channel activity) [2],"inhibition of the control signal ([3]; 3 µM Compound A present in all wells, increasing concentrations of compound, Figure 4)","block of the signal generated by addition of a high-potassium solution ([3]; compound alone, no endogenous conductance blocker, Figure 3)","inhibition of the signal generated by addition of a high-potassium solution ([3]; in the presence of Compound A, Figure 3)","effect on the magnitude of the signal caused by addition of high-potassium solution ([3]; Compound A alone, Figure 3)"
COc1ccccc1C(=O)NCC1(c2ccccc2)CCC(=O)CC1 [Compound B],concentration-dependent inhibition of the fluorescence signal,unaffected,,,,,
COc1ccc2c(c1)c(CC(=O)N(C(=O)NC1CCCCC1)C1CCCCC1)c(C)n2C(=O)c1ccc(Cl)cc1 [Compound 1],not affected,,completely inhibits the control signal,concentration-dependent inhibition of the control signal,only partially blocks the signal,complete inhibition of the signal,
CCCNC(=O)OC1CCC(CNC(=O)c2ccccc2OC)(c2ccccc2)CC1 (stereo not shown) [Compound A],concentration-dependent inhibition of the fluorescence signal,unaffected,,,,,no significant effect on the magnitude of the signal
